Measured values: US20230285405A1, “Pharmaceuticals for Treating or Preventing Nidoviruses and Picornaviruses” (priority 2020, published 2023)
Where a name gives a salt, the structure may show the parent alone. Read-outs that look alike come from different tables or passages of the source.

Assays:
A549-mRuby cells = test: Drug screening: effect on cell growth (cell number day 4 / day 0); conditions: 10 μM drug; for Growth_1: number of cells at day 4 divided by number of cells at day 0 / toxic_1: repeat #1; for Growth_2: number of cells at day 4 divided by number of cells at day 0 / toxic_2: repeat #2
Description: A549-mRuby cells were seeded (3,000 cells per well) in nine 384-well plates using Multidrop combi. Cells were seeded in a final volume of 30 μl with DMEM+10% BCS. The following day, 20 μl of OC43 were added (MOI 0.3) and incubated at 33° C., 5% CO2 for 1 hour. 50 nl from the Selleck FDA-approved drug library (cat #L1300, Selleck) were added (1:1,000 dilution). Two columns (32 wells) were left uninfected and two columns were treated with DMSO and virus (no drug control). Cells were imaged using the IncuCyte S3 to measure cell numbers at day 0. Cells were incubated for 4 days at 33° C., 5% CO2 and were stained for OC43 nucleoprotein. All the following steps were performed at room temperature. […] The screen was performed twice.
(§1) The following parameters were extracted from the images: number of cells at day 0, number of cells at day 4 and total OC43 staining intensity at day 4. For analysis, OC43 staining intensity was normalized to the number of cells in the well and further normalized to the mean of the no drug controls, which was set to 100. […] For each plate, a drug was considered as a putative hit if it reduced OC43 staining by over 3 standard deviations from the mean of the no drug controls. Drugs were considered hits if they were not toxic and reduced OC43 staining by over 3 standard deviations in both repeats.
(§2) A library of 1,900 clinically used drugs was screened, the drugs either approved for human use or having extensive safety data in humans (Phase 2 or 3 clinical trials), for their ability to inhibit OC43 infection of the human lung epithelial cell line A549 (expressing an H2B-mRuby nuclear reporter). One day after plating, cells were infected at an MOI of 0.3, incubated at 33° C. for 1 hour and drugs were added to a final concentration of 10 μM. Cells were then incubated at 33° C. for 4 days, fixed and stained for the presence of the viral nucleoprotein. The cells were imaged at day 0 (following drug addition) and day 4 (after staining) to determine the drugs effect on cell growth and OC43 infection.

OC43 = test: Drug screening: OC43 nucleoprotein staining in infected A549-mRuby cells; assay type: cell-based, human beta coronavirus OC43; conditions: for activity at 10 µM: Betacoronavirus 1, OC43, 96 h
Description: A549-mRuby cells were seeded (3,000 cells per well) in nine 384-well plates using Multidrop combi. Cells were seeded in a final volume of 30 μl with DMEM+10% BCS. The following day, 20 μl of OC43 were added (MOI 0.3) and incubated at 33° C., 5% CO2 for 1 hour. 50 nl from the Selleck FDA-approved drug library (cat #L1300, Selleck) were added (1:1,000 dilution). Two columns (32 wells) were left uninfected and two columns were treated with DMSO and virus (no drug control). Cells were imaged using the IncuCyte S3 to measure cell numbers at day 0. Cells were incubated for 4 days at 33° C., 5% CO2 and were stained for OC43 nucleoprotein. All the following steps were performed at room temperature. Cells were fixed in 50 μl 4% PFA/PBS for 15 min, blocked with 50 μl 10% BSA+0.5% Triton X-100 in PBS for 30 minutes, stained with 50 μl anti-OC43 (cat #MAB9013, Milipore) diluted 1:2,000 in 2% BSA+0.1% Triton X-100 in PBS for 1 hour, washed with 50 μl PBS three times, stained with anti-mouse-AlexaFluor488 diluted 1:1,000 in 2% BSA+0.1% Triton X-100 in PBS for 1 hour, washed with 50 μl PBS three times and imaged on the IncuCyte S3 (day 4). The screen was performed twice.
as §1, §2

[1] = 10 μM drug, MOI 0.3, 4 days, normalized to no-drug controls in the same plate, repeat #1, read-out: OC43_1: % staining of OC43 in screen repeat #1
[2] = 10 μM drug, MOI 0.3, 4 days, normalized to no-drug controls in the same plate, repeat #2, read-out: OC43_2: % staining of OC43 in screen repeat #2
[3] = 10 μM drug, MOI 0.3, 4 days, OC43 staining normalized to no-drug controls, mean of the two screen repeats, read-out: OC43_mean
[4] = 10 μM drug, MOI 0.3, 4 days, OC43 staining normalized to no-drug controls, mean of the two screen repeats
[5] = 10 μM drug, MOI 0.3, 4 days, normalized to no-drug controls in the same plate, repeat #1
[6] = 10 μM drug, MOI 0.3, 4 days, normalized to no-drug controls in the same plate, repeat #2

SMILES | Growth_1: number of cells at day 4 divided by number of cells at day 0 (A549-mRuby cells) | toxic_1 (A549-mRuby cells) | Growth_2: number of cells at day 4 divided by number of cells at day 0 (A549-mRuby cells) | toxic_2 (A549-mRuby cells) | hit_1 (OC43; 10 μM drug, repeat #1) | hit_2 (OC43; 10 μM drug, repeat #2) | activity at 10 µM (OC43; [1]) | activity at 10 µM (OC43; [2]) | activity at 10 µM (OC43; read-out: OC43_mean) | activity at 10 µM (OC43; [3]) | Growth_1: number of cells at day 4 divided by number of cells at day 0 (A549-mRuby cells; Dihydrate) | Growth_2: number of cells at day 4 divided by number of cells at day 0 (A549-mRuby cells; Dihydrate) | OC43_mean (OC43; [4]) | OC43_1: % staining of OC43 in screen repeat #1 (OC43; [5]) | OC43_2: % staining of OC43 in screen repeat #2 (OC43; [6])
CCN(CCCc1ccccc1)CCCc1ccccc1 [Alverine Citrate] | 3.7 | 0 | 4.0 | 0 | 1 | 1 | 22.1% | 35.3% | 28.7% |  |  |  |  |  | 
CCCCc1oc2ccccc2c1C(=O)c1cc(I)c(OCCN(CC)CC)c(I)c1 [Amiodarone HCl] | 4.6 |  | 5.4 |  | 1 | 1 | 18.8% | 26.9% |  | 22.8% |  |  |  |  | 
CN(C)CCC=C1c2ccccc2CCc2ccccc21 [Amitriptyline HCl] | 3.7 | 0 | 4.1 | 0 | 1 | 1 | 11.2% | 34.3% |  | 22.8% |  |  |  |  | 
CN(C)N(C)C(=O)[C@@]1(Cc2ccccc2)CCCN(C(=O)[C@@H](Cc2c[nH]c3ccccc23)NC(=O)C(C)(C)N)C1 [Anamorelin] | 5.2 | 0 | 5.5 | 0 | 1 | 1 | 32% | 45.6% |  | 38.8% |  |  |  |  | 
CC[C@H]1OC(=O)[C@H](C)[C@@H](O[C@H]2C[C@@](C)(OC)[C@@H](O)[C@H](C)O2)[C@H](C)[C@@H](O[C@@H]2O[C@H](C)C[C@H](N(C)C)[C@H]2O)[C@](C)(O)C[C@@H](C)CN(C)[C@H](C)[C@@H](O)[C@]1(C)O [Azithromycin Dihydrate] |  | 0 |  | 0 | 1 | 1 | 20.5% | 15.9% |  | 18.2% | 5.4 | 5.0 |  |  | 
CC[C@H]1OC(=O)[C@H](C)[C@@H](O[C@H]2C[C@@](C)(OC)[C@@H](O)[C@H](C)O2)[C@H](C)[C@@H](O[C@@H]2O[C@H](C)C[C@H](N(C)C)[C@H]2O)[C@](C)(O)C[C@@H](C)CN(C)[C@H](C)[C@@H](O)[C@]1(C)O [Azithromycin] | 4.0 |  | 4.4 |  |  |  |  |  |  |  |  |  | 23.4% | 20.4% | 26.4%
CCC(=O)OCC(=O)[C@@]1(OC(=O)CC)[C@@H](C)C[C@H]2[C@@H]3CCC4=CC(=O)C=C[C@]4(C)[C@@]3(Cl)[C@@H](O)C[C@@]21C [Beclomethasone dipropionate] | 3.4 | 0 | 4.6 | 0 | 1 | 1 | 38.3% | 29% |  | 33.6% |  |  |  |  | 
CN1C2CCC1CC(OC(c1ccccc1)c1ccccc1)C2.CS(=O)(=O)O (centres unmarked) [Benztropine mesylate] | 4.4 | 0 | 5.1 | 0 | 1 | 1 | 7.4% | 12.8% |  | 10.1% |  |  |  |  | 
CN(C)CCCOc1nn(Cc2ccccc2)c2ccccc12 [Benzydamine HCl] | 4.9 | 0 | 4.6 | 0 | 1 | 1 | 26.2% | 25.6% |  | 25.9% |  |  |  |  | 
COc1ccc(NC(=O)c2ccc(C(=N)N(C)C)cc2)c(C(=O)Nc2ccc(Cl)cn2)c1 [Betrixaban maleate] | 4.6 | 0 | 5.7 | 0 | 1 | 1 | 32% | 21.8% |  | 26.9% |  |  |  |  | 
COc1ccc(NC(=O)c2ccc(C(=N)N(C)C)cc2)c(C(=O)Nc2ccc(Cl)cn2)c1 [Betrixaban] | 5.3 | 0 | 5.5 | 0 | 1 | 1 |  |  |  |  |  |  | 32.0% | 30.2% | 33.7%
CCCC1O[C@@H]2C[C@H]3[C@@H]4CCC5=CC(=O)C=C[C@]5(C)[C@H]4[C@@H](O)C[C@]3(C)[C@]2(C(=O)CO)O1 (some centres unmarked) [Budesonide] | 3.9 | 0 | 4.0 | 0 | 1 | 1 | 20.8% | 36.9% |  | 28.8% |  |  |  |  | 
COc1ccccc1OCCNCC(O)COc1cccc2[nH]c3ccccc3c12 (centres unmarked) [Carvedilol] | 4.5 | 0 | 3.1 | 0 | 1 | 1 | 20.1% | 29.1% |  | 24.6% |  |  |  |  | 
CCN(CC)CCCC(C)Nc1ccnc2cc(Cl)ccc12 (centres unmarked) [Chloroquine Phosphate] |  | 0 |  | 0 | 1 | 1 | 11.3% | 13.1% | 12.2% |  |  |  |  |  | 
CCCCOc1cc(C(=O)NCCN(CC)CC)c2ccccc2n1 [Cinchocaine] | 4.3 | 0 | 4.2 | 0 | 1 | 1 | 18.9% | 64.3% |  | 41.6% |  |  |  |  | 
COc1cc(N)c(Cl)cc1C(=O)NC1CCN(CCCOc2ccc(F)cc2)CC1OC (centres unmarked) [Cisapride] | 4.1 | 0 | 4.5 | 0 | 1 | 1 | 28.5% | 22.1% |  | 25.3% |  |  |  |  | 
C=C[C@H]1C[N@@]2CC[C@H]1C[C@@H]2[C@@H](O)c1ccnc2ccc(OC)cc12 [Quinidine sulfate] |  |  |  |  | 1 | 1 | 25.1% | 47.9% |  |  |  |  |  |  | 
